Measured values as given in article PMC10892419, “UHPLC-MS/MS Assay for Quantification of Legubicin, a Novel Doxorubicin-Based Legumain-Activated Prodrug, and Its Application to Pharmacokinetic and Tissue Distribution Studies” (Molecules, 2024).

What was measured:
[1] = Storage stability of analytes in mouse plasma (method validation); details: processed mouse plasma, 12 h
Description: (§1) By investigating low- and high-concentration stability QCs in six replicates at different storage conditions, autosampler, short-term (bench-top), freeze and thaw, and long-term stability evaluations were conducted.

[2] = Storage stability of analytes in mouse tumor homogenate (method validation)
Description: (§2) Tumor-bearing mouse tumor/individual tissue samples were homogenized by adding PBS at a ratio of 1:5 (e.g., 1 g of tumor sample to 5 mL of PBS) to make a tumor/tissue homogenate. A quantity of 60 µL of homogenate was taken as a tumor/tissue sample and processed in the same manner as the mouse plasma sample, with the exception of 240 µL of IS working solution used for protein precipitation.
as §1

[3] = Storage stability of analytes in rat plasma (method validation); details: for Auto-Sampler Stability at 2–8 °C (72 h), Bias / Auto-Sampler Stability at 2–8 °C (72 h), Measured Concentration: processed rat plasma; for Auto-Sampler Stability at 2–8 °C (72 h), Bias / Short-Term Stability at Room Temperature (4 h), Bias / Freeze and Thaw Stability at −80 °C/Room Temperature (3 Cycles), Bias / Long-Term Stability at −80 °C (70 days), Bias: n = 6; for Auto-Sampler Stability at 2–8 °C (72 h), Measured Concentration / Freeze and Thaw Stability at −80 °C/Room Temperature (3 Cycles), Measured Concentration / Long-Term Stability at −80 °C (70 days), Measured Concentration / Short-Term Stability at Room Temperature (4 h), Measured Concentration: n = 6, mean ± SD; for Short-Term Stability at Room Temperature (4 h), Bias / Freeze and Thaw Stability at −80 °C/Room Temperature (3 Cycles), Bias / Long-Term Stability at −80 °C (70 days), Bias / Freeze and Thaw Stability at −80 °C/Room Temperature (3 Cycles), Measured Concentration / Long-Term Stability at −80 °C (70 days), Measured Concentration / Short-Term Stability at Room Temperature (4 h), Measured Concentration: rat plasma; for Short-Term Stability at Room Temperature (4 h), Bias: bias from nominal
Description: as §1

[4] = Tissue-distribution study after i.v. legubicin or doxorubicin; details: after i.v. legubicin 9.05 µmol/kg, HT1080 tumor-bearing mice
Description: The mixture was vortexed for 3 min, and then centrifuged at 22,000× g at 4 °C for 10 min. A final analysis was conducted by injecting 5 µL supernatant into a UHPLC-MS/MS system. Mouse plasma samples were treated in the same way as the rat plasma samples, except for protein precipitation, with 200 µL of 5 pmol/mL IS working solution and injection of 2 µL of supernatant for analysis.
Each legubicin administration group corresponded to a sampling time-point (4, 16, 32, 48, 96, 168, and 240 h after administration). […] Blood samples and tumor, heart, and kidney tissues were collected at the sampling time points (4, 16, 32, 48, 96, 168, and 240 h after dosing). In addition, liver, spleen, lung, stomach, small intestine, gonads, brain, skeletal muscle, and skin were also collected at 4, 32, 96, and 240 h post-dose time points in the legubicin administration group. All whole-blood samples were processed according to the same processing steps, described above, for rat whole-blood samples.
The analysis software (Version 1.5.2, AB Sciex, Vaughan, ON, Canada) was applied to data acquisition and quantification. Pharmacokinetic parameters were calculated with WinNonlin Phoenix (v6.4, Pharsight, Mountain View, CA, USA) with the noncompartmental method, and were presented as mean ± SD (%CV). The “Best fit” strategy in the WinNonlin Phoenix was used for the calculation of elimination half-life and the selection of the elimination phase. Graphs were plotted by GraphPad Software (GraphPad Prism 8.0.2; GraphPad Software, Inc., La Jolla, CA, USA).

[5] = Storage stability of analytes in mouse liver homogenate (method validation)
Description: as §2, §1

[6] = high QC (Leu-DOX 4000, DOX 1200 pmol/mL, conjugate 80 nmol/mL)
[7] = high QC (nominal Leu-DOX 4000, DOX 1200 pmol/mL)
[8] = low QC (Leu-DOX 10, DOX 3 pmol/mL, conjugate 0.2 nmol/mL)
[9] = low QC (nominal Leu-DOX 10, DOX 3 pmol/mL)

COc1cccc2c1C(=O)c1c(O)c3c(c(O)c1C2=O)C[C@@](O)(C(=O)CO)C[C@@H]3O[C@H]1C[C@H](NC(=O)[C@@H](N)CC(C)C)[C@H](O)[C@H](C)O1 [Leu-DOX, N-L-leucyl-doxorubicin]
Auto-sampler stability at 2-8 °C, Bias ([1]; low QC (Leu-DOX 9, DOX 3 pmol/mL), n = 6): -3.1%
Auto-sampler stability at 2-8 °C, Measured concentration ([1]; low QC (nominal Leu-DOX 9, DOX 3 pmol/mL), n = 6, mean ± SD): 8.72 ± 0.62 pmol/mL
Freeze and thaw stability at -80 °C/ room temperature, Bias ([2]; mouse tumor homogenate, 3 cycles, low QC (Leu-DOX 27, DOX 9 pmol/mL), n = 6): 2.6%
Freeze and thaw stability at -80 °C/ room temperature, Measured concentration ([2]; mouse tumor homogenate, 3 cycles, low QC (nominal Leu-DOX 27, DOX 9 pmol/mL), n = 6, mean ± SD): 27.70 ± 1.13 pmol/mL
Short term stability at room temperature (6 h), Bias ([2]; mouse tumor homogenate, low QC (Leu-DOX 27, DOX 9 pmol/mL), n = 6): 2.2%
Short term stability at room temperature (6 h), Measured concentration ([2]; mouse tumor homogenate, low QC (nominal Leu-DOX 27, DOX 9 pmol/mL), n = 6, mean ± SD): 27.58 ± 1.95 pmol/mL
Auto-sampler stability at 2-8 °C, Bias ([2]; processed mouse tumor homogenate, 48h, low QC (Leu-DOX 27, DOX 9 pmol/mL), n = 6): -0.4%
Auto-sampler stability at 2-8 °C, Measured concentration ([2]; processed mouse tumor homogenate, 48h, low QC (nominal Leu-DOX 27, DOX 9 pmol/mL), n = 6, mean ± SD): 26.88 ± 0.94 pmol/mL
Auto-Sampler Stability at 2–8 °C (72 h), Bias [3, 6]: −6.0%
Auto-Sampler Stability at 2–8 °C (72 h), Measured Concentration [3, 7]: 3758.33 ± 422.58 nM
Auto-Sampler Stability at 2–8 °C (72 h), Bias [3, 8]: −0.4%
Auto-Sampler Stability at 2–8 °C (72 h), Measured Concentration [3, 9]: 9.96 ± 0.48 nM
Short-Term Stability at Room Temperature (4 h), Bias [3, 6]: −3.2%
Freeze and Thaw Stability at −80 °C/Room Temperature (3 Cycles), Bias [3, 6]: −5.6%
Long-Term Stability at −80 °C (70 days), Bias [3, 6]: 7.5%
Freeze and Thaw Stability at −80 °C/Room Temperature (3 Cycles), Measured Concentration [3, 7]: 3775.00 ± 329.89 pmol/mL
Long-Term Stability at −80 °C (70 days), Measured Concentration [3, 7]: 4300.00 ± 240.83 pmol/mL
Short-Term Stability at Room Temperature (4 h), Measured Concentration [3, 7]: 3871.67 ± 390.25 pmol/mL
Short-Term Stability at Room Temperature (4 h), Bias [3, 8]: −2.4%
Freeze and Thaw Stability at −80 °C/Room Temperature (3 Cycles), Bias [3, 8]: 2.0%
Long-Term Stability at −80 °C (70 days), Bias [3, 8]: 0.7%
Freeze and Thaw Stability at −80 °C/Room Temperature (3 Cycles), Measured Concentration [3, 9]: 10.20 ± 0.70 pmol/mL
Long-Term Stability at −80 °C (70 days), Measured Concentration [3, 9]: 10.07 ± 1.50 pmol/mL
Short-Term Stability at Room Temperature (4 h), Measured Concentration ([3]; low QC (nominal Leu-DOX 10, DOX 3 pmol/mL), UHPLC-MS/MS): 9.76 ± 0.41 pmol/mL
brain penetration of the metabolite [4]: neither the metabolite doxorubicin nor free Leu-Dox permeated the brain
tissue concentration rank order of the metabolite ([4]; n = 6): highest concentration in the liver, followed by the spleen, small intestine, kidney, tumor, lung, skin, gonads, stomach, plasma, skeletal muscle, and heart
Freeze and thaw stability at -80 °C/ room temperature, Bias ([5]; mouse liver homogenate, 3 cycles, low QC (Leu-DOX 27, DOX 10 pmol/mL), n = 6): 0.9%
Freeze and thaw stability at -80 °C/ room temperature, Measured concentration ([5]; mouse liver homogenate, 3 cycles, low QC (nominal Leu-DOX 27, DOX 10 pmol/mL), n = 6, mean ± SD): 27.23 ± 1.55 pmol/mL
Short term stability at room temperature (6 h), Bias ([5]; mouse liver homogenate, low QC (Leu-DOX 27, DOX 10 pmol/mL), n = 6): -4.8%
Short term stability at room temperature (6 h), Measured concentration ([5]; mouse liver homogenate, low QC (nominal Leu-DOX 27, DOX 10 pmol/mL), n = 6, mean ± SD): 25.72 ± 1.45 pmol/mL
Auto-sampler stability at 2-8 °C, Bias ([5]; processed mouse liver homogenate, 48h, low QC (Leu-DOX 27, DOX 10 pmol/mL), n = 6): 3.6%
Auto-sampler stability at 2-8 °C, Measured concentration ([5]; processed mouse liver homogenate, 48h, low QC (nominal Leu-DOX 27, DOX 10 pmol/mL), n = 6, mean ± SD): 27.97 ± 3.06 pmol/mL
